{"source": "patent US20230157586A1", "about": "(United States Government as Represented by the Department …, priority 2021, published 2023)", "origin": "cited, not measured here", "key": {"[1]": {"target": "albumin (Homo sapiens, UniProt P02768)", "sequence (P02768 25-609)": "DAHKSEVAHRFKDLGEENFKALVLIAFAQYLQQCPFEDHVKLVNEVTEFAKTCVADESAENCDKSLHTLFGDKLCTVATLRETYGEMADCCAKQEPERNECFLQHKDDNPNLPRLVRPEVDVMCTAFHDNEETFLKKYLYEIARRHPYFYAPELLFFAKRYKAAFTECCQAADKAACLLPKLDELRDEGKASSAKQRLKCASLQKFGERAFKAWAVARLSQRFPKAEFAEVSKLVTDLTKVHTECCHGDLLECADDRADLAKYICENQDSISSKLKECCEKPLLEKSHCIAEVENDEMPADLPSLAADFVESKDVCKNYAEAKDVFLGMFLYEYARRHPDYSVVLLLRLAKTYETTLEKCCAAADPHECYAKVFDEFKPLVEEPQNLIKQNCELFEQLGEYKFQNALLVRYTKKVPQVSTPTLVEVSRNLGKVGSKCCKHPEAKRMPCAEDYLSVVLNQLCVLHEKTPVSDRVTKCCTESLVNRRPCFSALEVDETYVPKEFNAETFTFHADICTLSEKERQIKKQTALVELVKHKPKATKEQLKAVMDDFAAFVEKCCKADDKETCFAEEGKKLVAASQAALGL", "settings": "37° C.; same for each subject"}, "[2]": {"target": "T1, corticosteroid binding globulin (CBG) (Homo sapiens, UniProt P08185)", "T1 sequence (P08185 23-405)": "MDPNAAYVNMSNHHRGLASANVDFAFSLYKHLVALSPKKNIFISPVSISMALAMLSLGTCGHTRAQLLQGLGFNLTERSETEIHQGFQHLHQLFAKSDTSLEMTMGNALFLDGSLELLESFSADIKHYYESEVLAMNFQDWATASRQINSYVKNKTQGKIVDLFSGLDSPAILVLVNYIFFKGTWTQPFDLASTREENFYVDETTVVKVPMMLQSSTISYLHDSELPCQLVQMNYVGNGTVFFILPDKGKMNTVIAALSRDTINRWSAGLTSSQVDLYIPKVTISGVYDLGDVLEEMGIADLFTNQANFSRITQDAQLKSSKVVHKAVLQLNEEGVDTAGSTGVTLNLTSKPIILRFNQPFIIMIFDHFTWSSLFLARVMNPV", "settings": "37° C.; same for each subject"}, "[3]": {"target": "T2, mutant CBG protein (GLy237Val substitution, SERPINA6) (Homo sapiens, UniProt P08185, G259V)", "T2 sequence (P08185 23-405 G259V)": "T1 sequence (P08185 23-405) with G237V", "settings": "previously reported; higher equilibrium dissociation constant KD"}}, "note": "Residue numbers refer to the chain shown, from its start.", "data": [{"smiles": "C[C@]12CCC(=O)C=C1CC[C@@H]1[C@@H]2[C@@H](O)C[C@@]2(C)[C@H]1CC[C@]2(O)C(=O)CO", "note": "[cortisol]", "values": [{"measurement": "κ1^A association rate constant (on-rate), albumin", "setting": "[1]", "result": 8950, "unit": "M/s"}, {"measurement": "κ−1^A dissociation rate constant (off-rate), albumin", "setting": "[1]", "result": 2.2, "unit": "s⁻¹"}, {"measurement": "κ1^C association rate constant (on-rate), CBG", "setting": "[2]", "result": "3.62e+07", "unit": "M/s"}, {"measurement": "κ−1^C dissociation rate constant (off-rate), CBG", "setting": "[2]", "result": 0.88, "unit": "s⁻¹"}, {"measurement": "cortisol binding affinity of mutant CBG compared to wild type CBG protein", "setting": "[3]", "result": "markedly decreased cortisol binding affinity"}]}]}
